Values of other authors in patent US6710071B2, “Difluoromethylene aromatic ethers as inhibitors of glycine transport” (Pfizer Inc, priority 2001, dated 2004).

System: NMDA receptor
Details: effect blocked by a specific NMDA-site antagonist and a glycine-site antagonist

CN(CCC(Oc1ccc(-c2ccccc2)cc1)c1ccc(F)cc1)CC(=O)O (stereo not shown) [NFPS]
post synaptic current driven by the NMDA receptor: increased
